We go through 28 compounds from US20260008780A1, “SUBSTITUTED 3,4-DIHYDROISOQUINOLIN-1(2H)-ONE DERIVATIVES AND RELATED USES” (NodThera Limited, priority 2022, published 2026).

Where a name gives a salt, the structure may show the parent alone. Where only a bound is given, the exact number is not on record here.

For this assay, the system named is IL-1β release upon NLRP3 activation in peripheral blood mononuclear cells (PBMC). In words: PBMC IC50 Determination Assay. In kind it is cell-based. The settings on record: Homo sapiens; PBMC from buffy coats, LPS 3 h, compound 30 min, then ATP (5 mM) or nigericin (10 μM) 1 h; IL-1β in media by ELISA (Protocol A) or HTRF (Protocol B). On the procedure:
The compounds of the present disclosure were tested for their inhibitory activity against IL-1β release upon NLRP3 activation in peripheral blood mononuclear cells (PBMC).
Protocol A. PBMC were isolated from buffy coats by density gradient centrifugation on Histopaque-1077 (Sigma, cat no. 10771). Isolated cells were seeded into the wells of a 96-well plate and incubated for 3 h with lipopolysaccharide (LPS). Following medium exchange, the compounds of the present disclosure were added (a single compound per well) and the cells were incubated for 30 min. Next, the cells were stimulated either with ATP (5 mM) or nigericin (10 μM) for 1 h and the cell culture media from the wells were collected for further analysis.
The release of IL-1β into the media was determined by a quantitative detection of IL-1β in the media using an IL-1p enzyme-linked immunosorbent assay (ELISA) Ready-SET-Go!, eBioscience cat. No. 88-7261-88. Briefly, in a first step, high affinity binding plates (Corning, Costar 9018 or NUNC Maxisorp Cat No. 44-2404) were coated overnight at 4° C. with specific capture antibody included in the kit (anti-human IL-1β ref 14-7018-68). Subsequently, plates were blocked with blocking buffer for 1 h at room temperature (rt) and after washing with a buffer (PBS with 0.05% Tween-20) incubated with protein standard and culture media. After 2 h of incubation at rt, plates were washed and incubated with biotinylated detection antibody included in the kit (anti-human IL-1β Biotin ref. 33-7110-68) for 1 h at rt. Plates were washed and incubated with HRP-streptavidin for 30 min at rt and washed again. The signal was developed after addition of 3,3′,5,5′-tetramethylbenzidine-peroxidase (TMB) until colour appeared and the reaction was stopped by 2 M H2SO4. A microplate spectrophotometer (BioTek) was used to detect signals with 450 nm. The detection range of IL-1β ELISA was […].
Protocol B. PBMC were isolated from buffy coats by density gradient centrifugation on Histopaque-1077 (Sigma, cat no. 10771). Isolated cells were seeded into the wells (280,000 cells/well) of a 96-well plate and incubated for 3 h with lipopolysaccharide (LPS, 1 μg/mL diluted 1000× from a 1 mg/mL stock solution). The compounds of the present disclosure were added (a single compound per well) and the cells were incubated for 30 min. Next, the cells were stimulated with ATP (5 mM final concentration diluted 20× from a 100 mM stock solution) for 1 h and the cell culture media from the wells were collected for further analysis.
The release of IL-1β into the media was determined by quantitative detection of IL-1β in the media using HTRF®, CisBio cat. No. 62HIL1BPEH. Briefly, cell culture supernatant were dispensed directly into the assay plate containing antibodies labelled with the HTRF® donor and acceptor. A microplate spectrophotometer (BMG) was used to detect signals at 655 nm and 620 nm. The detection range of IL-1β HTRF® was 39-6500 μg/mL.
A general note: ELISA stands for enzyme-linked immunosorbent assay.
Take `C[C@@H]1CN(CC(=O)Nc2ncccn2)C(=O)c2cc3sc(Cl)cc3n21` (racemic) [Compound 9, N-Pyrimidin-2-yl-2-[rac-(12R)-4-chloro-12-methyl-9-oxo-5-thia-1,10-diazatricyclo[6.4.0.02,6]dodeca-2(6),3,7-trien-10-yl]acetamide]: the IC50 – broadly, the concentration that inhibits the measured activity by half – fell in the range of 1000 to 3000 nM. In the case of `CC1Cn2cccc2C(=O)N1CC(=O)N[C@@H]1CCCN(C2CC2)C1` (stereo partly drawn) [Compound 1, N-[(3R)-1-Cyclopropyl-3-piperidyl]-2-(3-methyl-1-oxo-3,4-dihydropyrrolo[1,2-a]pyrazin-2-yl)acetamide hydrochloride], the IC50 lay in the range of 3000 to 10000 nM. Regarding `C[C@]1(O)C[C@@H](NC(=O)CN2CC3(CC3)n3c(cc4sc(Cl)cc43)C2=O)C1` [Compound 2, cis-2-(4-Chloro-9-oxo-spiro[5-thia-1,10-diazatricyclo[6.4.0.0^2.6]dodeca-2(6),3,7-triene-12,1′-cyclopropane]-10-yl)-N-(3-hydroxy-3-methylcyclobutyl) acetamide], the IC50 is 1000 to 3000 nM.

In the case of `O=C(CN1CC2(CC2)n2c(cc3sc(Cl)cc32)C1=O)Nc1ncccn1` [Compound 3, 2-(4-Chloro-9-oxo-spiro[5-thia-1,10-diazatricyclo[6.4.0.02,6]dodeca-2(6),3,7-triene-12,1′-cyclopropane]-10-yl)-N-pyrimidin-2-yl-acetamide], the IC50 was 100 to 1000 nM. For `O=C(CN1CC2(CC2)n2c(cc3sc(Cl)cc32)C1=O)NC1CC2(COC2)C1` [Compound 4] the value was 1000 to 3000 nM; for `Cc1nc(NC(=O)CN2CC3(CC3)n3c(cc4sc(Cl)cc43)C2=O)ns1` [Compound 5, 2-(4-Chloro-9-oxo-spiro[5-thia-1,10-diazatricyclo[6.4.0.0^2,6]dodeca-2(6),3,7-triene-12,1′-cyclopropane]-10-yl)-N-(5-methyl-1,2,4-thiadiazol-3-yl)acetamide], 1000 to 3000 nM. For `O=C(CN1CC2(CC2)n2c(cc3sc(Cl)cc32)C1=O)Nc1ncc(F)cn1` [Compound 6, 2-(4-Chloro-9-oxo-spiro[5-thia-1,10-diazatricyclo[6.4.0.0^2.6]dodeca-2(6),3,7-triene-12,1′-cyclopropane]-10-yl)-N-(5-fluoropyrimidin-2-yl)acetamide] the value was under 100 nM.

As for `CCn1cc2c(n1)C1(CC1)CN(CC(=O)Nc1ncc(F)cn1)C2=O` [Compound 7, 2-(2-Ethyl-4-oxo-spiro[6H-pyrazolo[4,3-c]pyridine-7,1′-cyclopropane]-5-yl)-N-(5-fluoropyrimidin-2-yl)acetamide], the IC50 is 1000 to 3000 nM. To `CC(C)c1cc2n(n1)C1(CC1)CN(CC(=O)Nc1ncccn1)C2=O` [Compound 8, 2-(2-Isopropyl-4-oxo-spiro[6H-pyrazolo[1,5-a]pyrazine-7,1′-cyclopropane]-5-yl)-N-pyrimidin-2-yl-acetamide] belongs 3000 to 10000 nM; to `C[C@@H]1CN(CC(=O)N[C@H]2C[C@@](C)(O)C2)C(=O)c2cc3sc(Cl)cc3n21` [Compound 10, 2-[(12R)-4-Chloro-12-methyl-9-oxo-5-thia-1,10-diazatricyclo[6.4.0.02,6]dodeca-2(6),3,7-trien-10-yl]-N-(3-hydroxy-3-methyl-cyclobutyl)acetamide], 3000 to 10000 nM; to `CC(C)c1cc2n(c1)C1(CC1)CN(CC(=O)Nc1ncccn1)C2=O` [Compound 11, 2-(7-Isopropyl-1-oxo-spiro[3H-pyrrolo[1,2-a]pyrazine-4,1′-cyclopropane]-2-yl)-N-pyrimidin-2-yl-acetamide], 3000 to 10000 nM. Turning to `CC(C)c1nc2c(s1)C(=O)N(CC(=O)Nc1ncccn1)CC21CC1` [Compound 12, 2-(2-Isopropyl-4-oxo-spiro[6H-thiazolo[5,4-c]pyridine-7,1′-cyclopropane]-5-yl)-N-pyrimidin-2-yl-acetamide], the IC50 was 3000 to 10000 nM. Compound `CCc1nc2c(s1)C(=O)N(CC(=O)Nc1ncccn1)CC21CC1` [Compound 13, 2-(2-Ethyl-4-oxo-spiro[6H-thiazolo[5,4-c]pyridine-7,1′-cyclopropane]-5-yl)-N-pyrimidin-2-yl-acetamide] registered an IC50 of 3000 to 10000 nM.

`CCc1cc2c(s1)C(=O)N(CC(=O)Nc1ncccn1)CC21CC1` [Compound 14, 2-(2-Ethyl-7-oxo-spiro[5H-thieno[2,3-c]pyridine-4,1′-cyclopropane]-6-yl)-N-pyrimidin-2-yl-acetamide] gave an IC50 of 100 to 1000 nM. For `O=C(CN1CC2(CC2)c2nc(C3CC3)sc2C1=O)Nc1ncccn1` [Compound 15, 2-(2-Cyclopropyl-4-oxo-spiro[6H-thiazolo[5,4-c]pyridine-7,1′-cyclopropane]-5-yl)-N-pyrimidin-2-yl-acetamide] the value was 100 to 1000 nM; for `CCOC(=O)c1cnc(NC(=O)CN2CC3(CC3)c3nc(C4CC4)sc3C2=O)nc1` [Compound 16, Ethyl 2-[[2-(2-cyclopropyl-4-oxo-spiro[6H-thiazolo[5,4-c]pyridine-7,1′-cyclopropane]-5-yl)acetyl]amino]pyrimidine-5-carboxylate], 1000 to 3000 nM. For `CC(C)n1cc2c(n1)C1(CC1)CN(CC(=O)Nc1ncccn1)C2=O` [Compound 17, 2-(2-Isopropyl-4-oxo-spiro[6H-pyrazolo[4,3-c]pyridine-7,1′-cyclopropane]-5-yl)-N-pyrimidin-2-yl-acetamide] the value was 3000 to 10000 nM; for `CCc1cc2c(o1)C1(CC1)CN(CC(=O)Nc1ncccn1)C2=O` [Compound 18, 2-(2′-Ethyl-4′-oxo-4′H-spiro[cyclopropane-1,7′-furo[3,2-c]pyridin]-5′(6′H)-yl)-N-(pyrimidin-2-yl)acetamide], 100 to 1000 nM; for `CC(C)c1cc2c([nH]1)C(=O)N(CC(=O)Nc1ncccn1)CC21CC1` [Compound 19, 2-(2′-Isopropyl-7′-oxo-1′,7′-dihydrospiro[cyclopropane-1,4′-pyrrolo[2,3-c]pyridin]-6′(5′H)-yl)-N-(pyrimidin-2-yl)acetamide], 1000 to 3000 nM. For `CC(C)c1cc2c(n1C)C(=O)N(CC(=O)Nc1ncccn1)CC21CC1` [Compound 20, 2-(2′-Isopropyl-1′-methyl-7′-oxo-1′,7′-dihydrospiro[cyclopropane-1,4′-pyrrolo[2,3-c]pyridin]-6′(5′H)-yl)-N-(pyrimidin-2-yl)acetamide], the IC50 is 1000 to 3000 nM. `CC(C)c1nc2c(n1C)C(=O)N(CC(=O)Nc1ncccn1)CC21CC1` [Compound 21] gave an IC50 of 10000 to 50000 nM.

With `CC(C)c1cc2n(n1)[C@H](C)CN(CC(=O)Nc1ncccn1)C2=O` [Compound 22, 2-[(7R)-7-Methyl-4-oxo-2-(propan-2-yl)-4H,5H,6H,7H-pyrazolo[1,5-a]pyrazin-5-yl]-N-(pyrimidin-2-yl)acetamide], the IC50 was 10000 to 50000 nM.

Take `CCNc1cc2c(s1)C(=O)N(CC(=O)Nc1ncccn1)CC21CC1` [Compound 23, 2-(2′-(Ethylamino)-7′-oxo-5′H-spiro[cyclopropane-1,4′-thieno[2,3-c]pyridin]-6′(7′H)-yl)-N-(pyrimidin-2-yl)acetamide]: the IC50 lay in the range of 1000 to 3000 nM.

`Cc1cc2c(s1)C(=O)N(CC(=O)Nc1ncccn1)CC21CC1` [Compound 24, 2-(2′-Methyl-7′-oxo-5′H-spiro[cyclopropane-1,4′-thieno[2,3-c]pyridin]-6′(7′H)-yl)-N-(pyrimidin-2-yl)acetamide] returned an IC50 of 1000 to 3000 nM. To `CC(C)c1cc2c(s1)C(=O)N(CC(=O)Nc1ncccn1)CC21CC1` [Compound 25, 2-(2′-Isopropyl-7′-oxo-5′H-spiro[cyclopropane-1,4′-thieno[2,3-c]pyridin]-6′(7′H)-yl)-N-(pyrimidin-2-yl)acetamide] belongs 100 to 1000 nM. To `O=C(CN1CC2(CC2)c2cc(C3CC3)sc2C1=O)Nc1ncccn1` [Compound 26, 2-(2′-Cyclopropyl-7′-oxo-5′H-spiro[cyclopropane-1,4′-thieno[2,3-c]pyridin]-6′(7′H)-yl)-N-(pyrimidin-2-yl)acetamide] belongs 100 to 1000 nM.

Consider `CC1(c2cc3c(s2)C(=O)N(CC(=O)Nc2ncccn2)CC32CC2)CC1` [Compound 27, 2-(2′-(1-Methylcyclopropyl)-7′-oxo-5′H-spiro[cyclopropane-1,4′-thieno[2,3-c]pyridin]-6′(7′H)-yl)-N-(pyrimidin-2-yl)acetamide], for which the IC50 lay within 100 to 1000 nM.

As for `Cc1nc2c(cc3n2C(C)CN(CC(=O)Nc2ncccn2)C3=O)s1` (stereo not shown) [Compound 41], the IC50 was in the range of 10000 to 50000 nM.
